Our source for the Emax and AC50 values is patent US9649314B2, “Pyrimido[4,5-b]quinoline-4,5(3H,10H)-diones” (NOVARTIS AG, priority 2012, dated 2017).

Each structure is given as a SMILES string.

For the experiment, the system named is CFTR-Y122X. Kind of experiment: CFTR-Y122X assay (dual reporter isogenic Hek293 cell lines, Renilla luminescence readthrough). Format: cell-based. To be noted: Homo sapiens, HEK293; for Emax / AC50: nonsense mutation suppression, 24 h incubation; for Emax: 100% = 14 mM paromomycin, tested up to 100 μM, read-out: Amax [%]; for Emax at 100 µM: measured at 100 μM compound concentration (footnote d). The gist of the method:
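Stable isogenic HEK dual-reporter line (eGFP–CFTR Y122X TGA PTC–myc–Renilla); 2000 cells/well, 24 h, then compound (10 μM; tested up to 100 μM) 24 h at 37 °C. Renilla luminescence normalised to neutral (0%) and 14 mM paromomycin (100%); wildtype construct counterscreen.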

Where [1] appears, read: read-out: Amax [%]: % nonsense mutation suppression relative to paromomycin reference activity.

Usually AC50 stands for the midpoint of the concentration-response curve, whichever way the signal moves. A lower AC50 goes with greater potency. As for `Cn1c2ccccc2c(=O)c2c(=O)n(C3CCCCC3)c(-c3cccc([N+](=O)[O-])c3)nc21` [Example 2.19, 3-cyclohexyl-10-methyl-2-(3-nitrophenyl)pyrimido[4,5-b]quinoline-4,5(3H,10H)-dione], the Emax worked out at 248% and the AC50 was 11.6 µM.
Turning to `CCCc1nc2c(c(=O)c3ccccc3n2C)c(=O)n1C1CCCC1` [Example 2.21, 3-cyclopentyl-10-methyl-2-propylpyrimido[4,5-b]quinoline-4,5(3H,10H)-dione], the Emax amounted to 214% and the AC50 came out at 7.6 µM.
Regarding `Cn1c2ccccc2c(=O)c2c(=O)n(C3CCCCCC3)c(-c3cccs3)nc21` [Example 2.22, 3-cycloheptyl-10-methyl-2-(thiophen-2-yl)pyrimido[4,5-b]quinoline-4,5(3H,10H)-dione], the Emax was 197% and the half-maximal activity concentration (AC50) stood at 11 µM.
For `CCCc1nc2c(c(=O)c3ccccc3n2C)c(=O)n1C1CCCCCC1` [Example 2.23, 3-cycloheptyl-10-methyl-2-propylpyrimido[4,5-b]quinoline-4,5(3H,10H)-dione] the same measures were 181% and 5 µM.
Regarding `CCCc1nc2c(c(=O)c3ccccc3n2C)c(=O)n1C1CCCCC1` [Example 2.24, 3-cyclohexyl-10-methyl-2-propylpyrimido[4,5-b]quinoline-4,5(3H,10H)-dione], the Emax stood at 170% and the AC50 was 2.3 µM.
Regarding `CCCCCc1nc2c(c(=O)c3ccccc3n2C)c(=O)n1C1CCCCCC1` [Example 2.25, 3-cycloheptyl-10-methyl-2-pentylpyrimido[4,5-b]quinoline-4,5(3H,10H)-dione], the Emax was 149% and the activity was half-maximal at 6.4 µM (AC50).
For `Cn1c2ccccc2c(=O)c2c(=O)n(C3CCCCCC3)c(-c3ccccc3)nc21` [Example 2.26, 3-cycloheptyl-10-methyl-2-phenylpyrimido[4,5-b]quinoline-4,5(3H,10H)-dione] the same measures were 97% and 11.1 µM.
As to `COc1ccc(-c2nc3c(c(=O)c4ccccc4n3C)c(=O)n2C2CCCCC2)cc1` [Example 2.27, 3-cyclohexyl-2-(4-methoxyphenyl)-10-methylpyrimido[4,5-b]quinoline-4,5(3H,10H)-dione], for the setting “measured at 25 μM compound concentration (footnote a), read-out: Amax [%]: % nonsense mutation suppression relative to paromomycin reference activity”, the Emax at 25 µM was 97%.
In the case of `Cn1c2ccccc2c(=O)c2c(=O)n(C3CCCC3)c(C3CCCCC3)nc21` [Example 2.28, 2-cyclohexyl-3-cyclopentyl-10-methylpyrimido[4,5-b]quinoline-4,5(3H,10H)-dione], the Emax is 89% and half-maximal activity (AC50) was put at 15.1 µM.
For `CC(C)c1nc2c(c(=O)c3ccccc3n2C)c(=O)n1C1CCCCC1` [Example 2.29, 3-cyclohexyl-2-isopropyl-10-methylpyrimido[4,5-b]quinoline-4,5(3H,10H)-dione] the same measures were 73% and 14.3 µM.
As to `Cn1c2ccccc2c(=O)c2c(=O)n(C3CCCCC3)c(-c3cccc(Br)c3)nc21` [Example 2.30, 2-(3-bromophenyl)-3-cyclohexyl-10-methylpyrimido[4,5-b]quinoline-4,5(3H,10H)-dione], the Emax was found to be 71% and the AC50 came to 22.2 µM.
As to `Cn1c2ccccc2c(=O)c2c(=O)n(C3CCCC3)c(-c3ccccc3F)nc21` [Example 2.32, 3-cyclopentyl-2-(2-fluorophenyl)-10-methylpyrimido[4,5-b]quinoline-4,5(3H,10H)-dione], the Emax at 100 µM under setting [1] turned out to be 43%.
Consider `Cn1c2ccccc2c(=O)c2c(=O)n(C3CCCC3)c(-c3ccc(F)cc3)nc21` [Example 2.33, 3-cyclopentyl-2-(4-fluorophenyl)-10-methylpyrimido[4,5-b]quinoline-4,5(3H,10H)-dione], for which the Emax at 100 µM under setting [1] worked out at 18%.
For the compound `Cc1ccccc1-c1nc2c(c(=O)c3ccccc3n2C)c(=O)n1C1CCCC1` [Example 2.34, 3-cyclopentyl-10-methyl-2-(o-tolyl)pyrimido[4,5-b]quinoline-4,5(3H,10H)-dione], the Emax came to 33% and the half-maximal activity concentration (AC50) turned out to be 8.4 µM.
Taken in the same sequence, the figures for `Cn1c2ccccc2c(=O)c2c(=O)n(C3CCCC3)c(-c3ccccc3Cl)nc21` [Example 2.35, 2-(2-chlorophenyl)-3-cyclopentyl-10-methylpyrimido[4,5-b]quinoline-4,5(3H,10H)-dione] were 31% and 9.4 µM.
Take `Cc1ccc(-c2nc3c(c(=O)c4ccccc4n3C)c(=O)n2C2CCCCC2)cc1` [Example 2.36, 3-cyclohexyl-10-methyl-2-(p-tolyl)pyrimido[4,5-b]quinoline-4,5(3H,10H)-dione]: the Emax was determined as 29% and the AC50 is 3.5 µM.
`Cc1ccccc1-c1nc2c(c(=O)c3ccccc3n2C)c(=O)n1C1CCCCC1` [Example 2.37, 3-cyclohexyl-10-methyl-2-(o-tolyl)pyrimido[4,5-b]quinoline-4,5(3H,10H)-dione]: the Emax at 100 µM under setting [1] worked out at 28%.
For `Cn1c2ccccc2c(=O)c2c(=O)n(C3CCCCC3)c(-c3ccccc3Cl)nc21` [Example 2.38, 2-(2-chlorophenyl)-3-cyclohexyl-10-methylpyrimido[4,5-b]quinoline-4,5(3H,10H)-dione], the Emax turned out to be 21% and the AC50 came out at 10 µM.
With `Cn1c2ccccc2c(=O)c2c(=O)n(C3CCCC3)c(-c3ccccc3)nc21` [Example 2.39, 3-cyclopentyl-10-methyl-2-phenylpyrimido[4,5-b]quinoline-4,5(3H,10H)-dione], the Emax at 50 µM (measured at 50 μM compound concentration (footnote e), read-out: Amax [%]: % nonsense mutation suppression relative to paromomycin reference activity) amounted to 31%.
Take `Cc1ccc(-c2nc3c(c(=O)c4ccccc4n3C)c(=O)n2C2CCCC2)cc1` [Example 2.40, 3-cyclopentyl-10-methyl-2-(p-tolyl)pyrimido[4,5-b]quinoline-4,5(3H,10H)-dione]: the Emax stood at 20% and the AC50 turned out to be 6.7 µM.
As to `Cn1c2ccccc2c(=O)c2c(=O)n(C3CCCCC3)c(-c3ccccc3F)nc21` [Example 2.41, 3-cyclohexyl-2-(2-fluorophenyl)-10-methylpyrimido[4,5-b]quinoline-4,5(3H,10H)-dione], the Emax was 18% and the AC50 was 4.9 µM.
In the case of `COc1cc(-c2nc3c(c(=O)c4ccccc4n3C)c(=O)n2C2CCCCCC2)cc(OC)c1OC` [Example 2.42, 3-cycloheptyl-10-methyl-2-(3,4,5-trimethoxyphenyl)pyrimido[4,5-b]quinoline-4,5(3H,10H)-dione], the Emax came to 18% and half-maximal activity (AC50) was put at 10.7 µM.
`Cn1c2ccccc2c(=O)c2c(=O)n(C3CCCC3)c(-c3cccs3)nc21` [Example 2.43, 3-cyclopentyl-10-methyl-2-(thiophen-2-yl)pyrimido[4,5-b]quinoline-4,5(3H,10H)-dione]: the Emax came to 17% and the activity was half-maximal at 14.7 µM (AC50).
For the compound `Cn1c2ccccc2c(=O)c2c(=O)n(C3CCCCC3)c(-c3ccc(Cl)cc3)nc21` [Example 2.44, 2-(4-chlorophenyl)-3-cyclohexyl-10-methylpyrimido[4,5-b]quinoline-4,5(3H,10H)-dione], the Emax is 16%.
On to `Cn1c2ccccc2c(=O)c2c(=O)n(C3CCCCC3)c(-c3ccc([N+](=O)[O-])cc3)nc21` [Example 2.45, 3-cyclohexyl-10-methyl-2-(4-nitrophenyl)pyrimido[4,5-b]quinoline-4,5(3H,10H)-dione], for which the Emax came to 14% and half-maximal activity (AC50) was put at 11 µM.
